{"source": "paper PMC11828983", "about": "(Scientific Reports, 2025)", "key": {"α1 GlyR (homomeric)": {"molecular_target": "T1, α1 GlyR (homomeric) (Rattus norvegicus, UniProt Q546L7)", "T1 sequence (Q546L7 29-449)": "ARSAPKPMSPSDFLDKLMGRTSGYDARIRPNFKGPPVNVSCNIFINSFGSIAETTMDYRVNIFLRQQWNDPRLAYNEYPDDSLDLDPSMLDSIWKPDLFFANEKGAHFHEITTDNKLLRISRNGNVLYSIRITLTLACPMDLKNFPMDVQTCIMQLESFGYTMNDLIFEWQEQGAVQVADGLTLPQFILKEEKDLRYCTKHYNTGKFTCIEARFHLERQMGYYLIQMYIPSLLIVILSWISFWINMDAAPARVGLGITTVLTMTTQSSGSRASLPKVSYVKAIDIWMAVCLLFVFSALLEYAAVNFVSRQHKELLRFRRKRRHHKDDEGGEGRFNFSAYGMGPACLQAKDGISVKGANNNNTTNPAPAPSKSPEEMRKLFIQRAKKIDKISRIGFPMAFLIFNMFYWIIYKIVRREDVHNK", "assay": "whole-cell patch clamp, direct activation", "format": "cell-based", "settings": "no glycine added; agonist; residual glycine not excluded"}, "α3 GlyR (homomeric)": {"molecular_target": "T2, α3 GlyR (homomeric) (Rattus norvegicus, UniProt P24524)", "T2 sequence (P24524 34-464)": "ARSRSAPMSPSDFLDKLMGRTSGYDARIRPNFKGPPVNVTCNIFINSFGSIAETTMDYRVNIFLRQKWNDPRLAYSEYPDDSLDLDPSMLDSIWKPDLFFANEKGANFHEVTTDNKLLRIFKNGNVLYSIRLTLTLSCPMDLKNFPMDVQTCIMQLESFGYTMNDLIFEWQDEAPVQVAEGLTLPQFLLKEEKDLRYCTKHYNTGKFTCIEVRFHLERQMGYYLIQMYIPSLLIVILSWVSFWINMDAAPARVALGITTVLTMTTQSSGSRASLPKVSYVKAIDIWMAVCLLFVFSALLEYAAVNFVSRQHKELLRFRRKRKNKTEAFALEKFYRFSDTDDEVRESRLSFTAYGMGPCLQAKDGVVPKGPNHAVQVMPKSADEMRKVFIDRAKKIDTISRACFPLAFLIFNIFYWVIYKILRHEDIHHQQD", "assay": "whole-cell patch clamp, direct activation", "format": "cell-based", "settings": "no glycine added; agonist; residual glycine not excluded"}}, "data": [{"substance": "AM-1488", "values": [{"measurement": "% of maximal glycine current at 100 μM", "setting": "α1 GlyR (homomeric)", "value": "> 20", "unit": "%"}, {"measurement": "% of maximal glycine current at 100 μM", "setting": "α3 GlyR (homomeric)", "value": "~ 15%"}]}]}
